These results are taken from patent US5504071A, “Compounds with a sequence of three radicals, the central one being α- a” (Polifarma S.p.A., priority 1990, dated 1996).

The test system of assay [1] is spontaneously hyper-tensive rats (SHR). The experiment in a line: pressure tests in awake spontaneously hypertensive rats. The conditions noted are these: 2 mg/Kg i.v. Type of assay: in vivo. An excerpt: (§1) In the following examples will first of all be given the data necessary for synthesis of the compounds according to the present invention. There will then be given data regarding their pharmacological activity, using methods widely known to be valid. In particular, for the pressure tests, spontaneously hyper-tensive rats were used (SHR from the company Charles River), operated in such a way as to enable pressure to be read even when the animals were awake and free to move. In order to evaluate the analgesic activity, the Hot Plate and Writhing Tests were used. For the anti-inflammatory effect the test of carraginine edema was used. Finally, for immuno-modulating activity the evaluation of the stimulation of growth of human lymphocytes in culture was resorted to, after the addition of specific antigens. The results obtained for each synthesized compound are given at the end of each example.

Assay [2] in a line: Hot Plate test (analgesic activity). Type of assay: in vivo. The conditions noted are these: dose not stated.
Text: as §1
For orientation: In hot-plate and tail-flick tests a longer latency is read as antinociception.

A short description of assay [3]: Writhing test (analgesic activity). Type of assay: in vivo. To be noted: dose not stated.
Text: as §1

Assay [4] can be described thus: analgesic activity, test not specified (Hot Plate and Writhing Tests). The class given is in vivo. To be noted: test and dose not stated.
Text: as §1

For assay [5], the system named is carraginine edema. As to the kind of experiment: carraginine edema test (anti-inflammatory effect). Type of assay: in vivo. To be noted: dose not stated.
Text: as §1

For assay [6], the system named is human lymphocytes in culture. The experiment in a line: stimulation of growth of human lymphocytes in culture after addition of specific antigens. The conditions noted are these: antigen not stated. Type of assay: cell-based.
Text: as §1

Consider `COC[C@H](Cc1ccccc1)NC(=O)[C@H](C)NC(=O)[C@@H]1CCCN1C(=O)OCc1ccccc1` [compound 6, Z-(L)-Pro-(L)-Ala-(L)-Pme], for which the anti-hypertensive effect entry in assay [1] is “good anti-hypertensive activity”. Besides, the reduction of pressure entry in assay [1] (after one hour) is reported as “approximately 25%”. Also, the “extension of time in the Hot Plate test” value in assay [2] is recorded as 25%. Also, the “reduction of contorsions during the Writhing test” value in assay [3] turned out to be 70%. The analgesic activity result in assay [4] is “good analgesic activity”. Moreover, in assay [5], the anti-inflammatory effect result is given as “rather weak”. In addition, the “immune response (immuno-stimulating activity)” value in assay [6] was “more consistent”.
